Laboratory results as given in US20210076683A1, “USE OF BACILLUS METHYLOTROPHICUS AS A STIMULANT OF PLANT GROWTH AND BIOLOGICAL CONTROL MEANS, AND ISOLATES OF SAID SPECIES” (UNIVERSIDAD DE GRANADA, priority 2014, published 2021).
*1 amine or outer side, *2 acyl side, *3 side chain or, on linkers, in order; H or OH if unused. Where a SMILES comes first, the peptide text is derived from it. Bridges are numbered along the chain shown (N, C = ends). [ ]: non-standard residue; d: D form. X1 = CC(C)CCCCCCCCC[C@H](CC(=O)[*:1])O[*:2]

What was measured:
[1] = Surfactant activity of the lipopeptides (CMC, surface tension); assay type: physicochemical; settings: at the CMC 0.0025%
Description: After extracting the lipopeptides following the method of Cooper et al. 1981, a yield of 0.12 g/l and 0.10 g/l of culture was obtained for strains XT1 and XT2, respectively. The type strain produced 0.6 g/l. Lipopeptide production has not been described in the case of the Bacillus strain of the commercial preparation Botrybel. More specifically, in addition to surfactin, strain XT1 object of the present invention produces other surfactant lipopeptides such as fengycin and lichenysin.
The cellular dry weight (CDW) of strains XT1, XT2 and of type strain is 2.7 g/l, 2.5 g/l and 2.9 g/l, respectively. In the case of strain XT1, the critical micelle concentration (CMC) is 0.0025% (0.025 mg/ml); a surface tension of 29.7 mN/m was obtained with this value. In the case of the surfactin produced by B. subtilis and marketed by Sigma®, values of 26.7 mN/m at the same CMC were obtained. In other words, strain XT1 produces very active lipopeptides surfactants showing activity similar to the surfactin available on the market.

[2] = system: Anthocoris nemoralis; assay: Mortality by ingestion in Anthocoris nemoralis; settings: observed 6 days; cultures 5×10^8 CFU/ml, surfactants and Tween 80 1/1000; water control 10

Question: For `CC(C)CCCCCCCCC[C@@H]1CC(=O)N[C@@H](CCC(=O)O)C(=O)N[C@@H](CC(C)C)C(=O)N[C@H](CC(C)C)C(=O)N[C@@H](C(C)C)C(=O)N[C@@H](CC(=O)O)C(=O)N[C@H](CC(C)C)C(=O)N[C@@H](CC(C)C)C(=O)O1` [surfactin] (EL[dL]VD[dL]L; linker N-C via X1), which surface tension [1] is on record?
Answer: 26.7 mN/m

Question: Which Mortality by ingestion [2] does the source give for Tween 80 here?
Answer: 5 percentage of individuals
